Data taken from publication PMC3969230, “Structural and functional characterization of NanU, a novel high-affinity sialic acid-inducible binding protein of oral and gut-dwelling Bacteroidetes species” (Biochemical Journal, 2014).
“And” between values parts separate entries of the source, which are not always exact repeats. Equal values may be shown once.

What was measured:
BT1043 = test system: BT1043; parameters: method as in PMID 19191477; conditions: non-physiological ligand; cited from earlier work
SusD = test system: SusD; parameters: method as in PMID 18611383; conditions: non-physiological ligand; cited from earlier work
NanU = assay: Steady-state tryptophan fluorescence titration, NanU (species not told apart); type: binding; conditions: for binding to NanU (in words): tryptophan fluorescence quenching
Procedure: (§1) Proteins were diluted in 25 mM sodium phosphate buffer, pH 7.4, to a final concentration of 0.5 μM and incubated at 25°C for 5 min before substrate titration. The quenching of intrinsic tryptophan fluorescence was measured at 25°C with constant stirring in a 104F-QS quartz fluorescence semi-micro cell (Hellma Analytics) using a Varian Cary Eclipse spectrofluorometer. The excitation and emission wavelengths were 295 nm (5 nm slit width) and 330 nm (10 nm slit width) respectively. Corrections for background fluorescence changes due to dilution effects with the stepwise addition of ligands were made by buffer titrations. Analysis and curve fitting of titration data were performed in Prism 5 (GraphPad Software), with the equilibrium dissociation constants (Kd) for one site-specific binding calculated using eqn (1): (1) Y=Bmax×X/(Kd+X) where X is the final concentration of ligand, Y is the percentage increase in protein quenching in relation to the protein-only fluorescence signal and Bmax is the extrapolated maximum specific binding.

BF-NanU (BF1720) = BF-NanU (BF1720) (Bacteroides fragilis, UniProt Q5LEN2); assay: Steady-state tryptophan fluorescence titration, BF-NanU; type: binding
Chain of BF-NanU (BF1720) (Q5LEN2 entry or part of it): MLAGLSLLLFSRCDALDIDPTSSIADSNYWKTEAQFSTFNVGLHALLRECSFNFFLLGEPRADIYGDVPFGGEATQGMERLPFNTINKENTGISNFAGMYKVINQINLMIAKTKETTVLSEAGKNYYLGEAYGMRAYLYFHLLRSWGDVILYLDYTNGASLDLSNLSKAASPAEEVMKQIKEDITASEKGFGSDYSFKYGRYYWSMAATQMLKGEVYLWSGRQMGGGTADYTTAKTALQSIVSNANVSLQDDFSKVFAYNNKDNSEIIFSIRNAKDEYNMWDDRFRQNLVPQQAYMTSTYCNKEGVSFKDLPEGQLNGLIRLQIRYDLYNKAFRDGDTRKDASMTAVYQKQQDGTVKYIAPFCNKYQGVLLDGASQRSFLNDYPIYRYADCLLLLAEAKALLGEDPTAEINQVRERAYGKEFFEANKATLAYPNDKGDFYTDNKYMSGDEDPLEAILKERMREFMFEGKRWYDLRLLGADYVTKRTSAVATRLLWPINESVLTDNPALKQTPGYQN
Procedure: as §1

TF-NanU (TF0034) = TF-NanU (TF0034) (Tannerella forsythia, UniProt G8UIQ0); assay: Steady-state tryptophan fluorescence titration, TF-NanU; conditions: 0.5 μM protein, 25 mM sodium phosphate pH 7.4, 25°C, one-site specific binding
Chain of TF-NanU (TF0034) (G8UIQ0 entry or part of it): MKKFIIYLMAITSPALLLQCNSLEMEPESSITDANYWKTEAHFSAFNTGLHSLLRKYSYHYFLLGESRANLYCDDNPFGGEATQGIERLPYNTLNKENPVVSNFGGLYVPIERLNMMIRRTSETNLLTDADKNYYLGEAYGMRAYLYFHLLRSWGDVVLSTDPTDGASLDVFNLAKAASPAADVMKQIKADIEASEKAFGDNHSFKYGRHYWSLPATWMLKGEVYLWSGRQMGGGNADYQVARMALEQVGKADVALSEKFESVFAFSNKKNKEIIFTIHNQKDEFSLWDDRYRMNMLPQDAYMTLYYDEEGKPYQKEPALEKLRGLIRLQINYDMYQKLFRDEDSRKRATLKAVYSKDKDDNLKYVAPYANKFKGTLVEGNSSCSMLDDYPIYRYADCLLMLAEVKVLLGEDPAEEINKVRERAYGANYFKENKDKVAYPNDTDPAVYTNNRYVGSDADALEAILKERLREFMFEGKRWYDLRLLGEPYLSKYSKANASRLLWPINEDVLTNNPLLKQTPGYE
Procedure: as §1

[1] = target: lectin domain of the Vibrio cholerae sialidase; parameters: method as in PMID 15226294; conditions: read-out: affinity; cited from earlier work
SiaP = target: SiaP; parameters: method as in PMID 16702222; conditions: cited from earlier work
[2] = 0.5 μM protein, 25 mM sodium phosphate pH 7.4, 25°C, one-site specific binding

Molecule | binding to NanU (in words) (NanU) | Kd (BF-NanU (BF1720); [2]) | Kd (TF-NanU (TF0034)) | also measured
CC(=O)N[C@H]1C(O)O[C@H](CO)[C@@H](O[C@@H]2O[C@H](CO)[C@H](O)[C@H](O)[C@H]2O)[C@@H]1O (stereo partly shown) [N-acetyl lactosamine] |  |  |  | binding interaction (range in words) (BT1043): in the mM range
cyclodextrin |  |  |  | binding interaction (range in words) (SusD): in the hundreds of μM range
CC(=O)N[C@H]1NC[C@H](C(=O)O)[C@H](O)[C@@H]1O [Siastatin B, siastatin B] | No binding |  |  | binding to NanU (in words) (NanU; listed as siastatin B): neither
O=C(CO)N[C@H]1[C@H]([C@H](O)[C@H](O)CO)O[C@](O)(C(=O)O)C[C@@H]1O [Neu5Gc, N-glycolylneuraminic acid] |  | 2 µM and 1.67 µM and 1.7 µM | 1.7 µM and 1.99 µM and 2 µM | affinity lower than Neu5Ac (fold) (NanU; Neu5Gc compared with Neu5Ac): 5 fold
CCOC(=O)C1=C[C@@H](OC(CC)CC)[C@H](NC(C)=O)[C@@H](N)C1 [Oseltamivir, oseltamivir] | No binding |  |  | binding to NanU (in words) (NanU; listed as oseltamivir): neither
CC(=O)N[C@H]1[C@H]([C@H](O)[C@H](O)CO)OC(C(=O)O)=C[C@@H]1O [Neu5Ac2en, 2-deoxy-2,3-didehydro-Neu5Ac] |  | 5.6 µM and 5.55 µM | 8.3 µM and 8.29 µM | 
sialyl-lactose | does not bind |  |  | 
CC(=O)N[C@H]1[C@H]([C@H](O)[C@H](O)CO)OC(C(=O)O)=C[C@@H]1N=C(N)N [Zanamivir, zanamivir] |  | 0.9 µM and 0.905 µM | 1.1 µM and 1.13 µM | 
CC(=O)N[C@H]1[C@H]([C@H](O)[C@H](O)CO)OC(O)(C(=O)O)C[C@@H]1O (stereo partly shown) [Neu5Ac, 5-N-acetylneuraminic acid] |  | 0.397 µM and 0.4 µM | 0.425 µM and 0.4 µM | Kd (BF-NanU (BF1720); BF-NanU expressed and purified from cells grown in M9 medium plus glycerol (results not shown)): 0.409 µM; Kd [1]: 30 µM; Kd (NanU; NanU from two Bacteroidetes species, approximate summary value): ~0.4 µM; Kd (SiaP): 0.12 µM
CC(=O)NC1C(O)CC(OCC2OC(OC3C(CO)OC(O)C(O)C3O)C(O)C(O)C2O)(C(=O)O)OC1C(O)C(O)CO (stereo not shown) [6′-siallyl-lactose] | did not display any interaction |  |  | 
CC(=O)NC1C(O)CC(OC2C(O)C(CO)OC(OC3C(CO)OC(O)C(O)C3O)C2O)(C(=O)O)OC1C(O)C(O)CO (stereo not shown) [3′-siallyl-lactose] | did not display any interaction |  |  | 
